Assay results: publication PMC8309073, “Collagenase and Tyrosinase Inhibitory Effect of Isolated Constituents from the Moss Polytrichum formosum” (Plants, 2021)
pIC50: −log10 of the molar value.

Experiments:
[1] = target: collagenase; experiment: FALGPA hydrolysis assay (compound purity […]); also retained in Target Binding ultrafiltration UHPLC-MS (RA […]); format: biochemical, Hathewaya histolytica
[2] = target: collagenase; experiment: FALGPA hydrolysis assay; also retained in Target Binding ultrafiltration UHPLC-MS (RA […]); format: biochemical, Hathewaya histolytica
[3] = target: T1, mushroom tyrosinase (Agaricus bisporus, UniProt C7FF04); experiment: spectrophotometric L-tyrosine to dopachrome assay, […] nm; also retained in Target Binding (RA […], reference); format: biochemical
T1 construct: gene PPO3; T3824-250KU, Sigma-Aldrich
T1 sequence (C7FF04 2-392): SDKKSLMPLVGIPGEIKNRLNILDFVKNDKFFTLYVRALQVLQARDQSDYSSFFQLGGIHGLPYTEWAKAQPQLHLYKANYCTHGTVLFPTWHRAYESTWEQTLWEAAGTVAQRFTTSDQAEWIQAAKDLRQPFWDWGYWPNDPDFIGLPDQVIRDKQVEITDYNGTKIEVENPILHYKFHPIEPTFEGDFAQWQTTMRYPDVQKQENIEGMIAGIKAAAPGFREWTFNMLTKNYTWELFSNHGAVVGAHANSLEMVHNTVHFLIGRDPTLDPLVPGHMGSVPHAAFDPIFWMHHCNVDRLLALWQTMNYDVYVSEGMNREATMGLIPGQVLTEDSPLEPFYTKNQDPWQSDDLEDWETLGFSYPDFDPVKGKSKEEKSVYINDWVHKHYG

Work on `O=C1C[C@@H]2c3ccccc3O[C@H]3c4ccc(O)c(O)c4-c4c(O)cc(O)c1c4[C@H]23` [compound 2, nor-ohioensin D] yielded a pIC50 [1] of 3.78.
`O=C1C[C@@H]2c3ccccc3O[C@H]3c4cc(O)ccc4-c4c(O)cc(O)c1c4[C@H]23` [compound 1, ohioensin A] showed a pIC50 [2] of 4.14 and an inhibition at 200 µM [3] of 30%.
